# From patent US9656971B2, “COMT inhibitors” (Hoffmann-La Roche Inc., priority 2012, dated 2017)
# Read-outs that look alike come from different tables or passages of the source.
# How the values were obtained:
# [1] = in vivo; cited from earlier work
# rat anhedonia model = conditions: cited from earlier work
# [2] = test system: patients with major depressive disorder (MDD); conditions: open clinical trial, 21 patients with MDD, 8 weeks, 400 mg b.i.d.; cited from earlier work
# Rec. human COMT = biological target: T1, Rec. human COMT (Homo sapiens, UniProt P21964); test: COMT-Fluorescence Assay; format: biochemical; conditions: rec. human COMT 25 nM, 4-Nitrocatechol-Alexa488 200 nM, SAM 500 nM
# T1 sequence (P21964 1-271): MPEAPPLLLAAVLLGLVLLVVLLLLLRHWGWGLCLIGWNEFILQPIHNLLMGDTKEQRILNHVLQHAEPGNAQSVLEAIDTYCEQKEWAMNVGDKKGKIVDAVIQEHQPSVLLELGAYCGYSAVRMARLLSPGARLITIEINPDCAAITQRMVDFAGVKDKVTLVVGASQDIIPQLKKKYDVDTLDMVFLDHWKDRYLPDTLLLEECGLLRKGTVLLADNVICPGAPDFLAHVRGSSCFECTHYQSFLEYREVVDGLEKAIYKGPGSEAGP
# Method: This intramolecular interaction is disturbed if the 4-Nitrocatechol is methylated. […] This increase of fluorescence intensity can be followed in a kinetic measurement. The slope in the linear range of the kinetic is calculated. An inhibitor compound decreases the slope.
# Signal [rfu/min]=(rfu(end-point)−rfu(startpoint))/incubation_time_#2
# [3] = COMT-fluorescence assay, read-out: IC50
SMILES,IC50 (Rec. human COMT; [3]) [nM],further results
"Cc1ccc(C(=O)c2cc(O)c(O)c([N+](=O)[O-])c2)cc1 [Tolcapone, tolcapone]",–,brain/plasma ratio [1]: ~0.01; anti-depressant activity (rat anhedonia model): anti-depressant activity; anti-depressant activity [2]: anti-depressant activity
"Cc1onc(-c2ccccc2)c1-c1cc(O)c2nc[nH]c(=O)c2c1 [Example 76, 8-Hydroxy-6-(5-methyl-3-phenylisoxazol-4-yl)quinazolin-4(3H)-one]",4600,–
"CN(C)Cc1ccccc1-c1cc(O)c2nc[nH]c(=O)c2c1 [Example 155, 6-(2-((Dimethylamino)methyl)phenyl)-8-hydroxyquinazolin-4(3H)-one]",–,"IC50 (Rec. human COMT; IC50, COMT-fluorescence assay): 1380 nM"
"O=c1[nH]cnc2c(O)c(F)c(Br)c(-c3ccc(F)cc3)c12 [Example 244, 6-Bromo-7-fluoro-5-(4-fluoro-phenyl)-8-hydroxy-3H-quinazolin-4-one]",150,–
"O=c1[nH]cnc2c(O)cc(-c3ccc(Br)nc3)cc12 [Example 144, 6-(6-Bromo-pyridin-3-yl)-8-hydroxy-3H-quinazolin-4-one]",50,–
"O=c1[nH]cnc2c(O)cc(-c3ccc(F)cc3)c(-c3ccnc(N4CCOCC4)c3)c12 [Example 59, 6-(4-Fluorophenyl)-8-hydroxy-5-(2-morpholinopyridin-4-yl)quinazolin-4(3H)-one]",40,–
"CS(=O)(=O)Cc1ccccc1-c1cc(O)c2nc[nH]c(=O)c2c1 [Example 115, 8-Hydroxy-6-(2-(methylsulfonylmethyl)phenyl)quinazolin-4(3H)-one 2,2,2-trifluoroacetate]",–,"IC50 (Rec. human COMT; IC50, COMT-fluorescence assay): 50 nM"
"O=c1[nH]cnc2c(O)cc(C3=CCOCC3)cc12 [Example 70, 6-(3,6-Dihydro-2H-pyran-4-yl)-8-hydroxyquinazolin-4(3H)-one]",20,–
"O=c1[nH]cnc2c(O)cc(Cl)cc12 [Example 139, 6-Chloro-8-hydroxyquinazolin-4(3H)-one]",290,–
"COC(=O)c1cc(O)c2nc[nH]c(=O)c2c1 [Example 2, Methyl 8-hydroxy-4-oxo-3,4-dihydroquinazoline-6-carboxylate]",30,–
